Columns and labels:
Experiment in all cases: relative viability (nuclei count vs DMSO), 5 days (fraction); higher = more cells survive
[1] = compound: CN(C)CC1=CC(=CC=C1)N=C(C2=CC=CC=C2)C3=C(NC4=C3C=CC(=C4)C(=O)N(C)C)O + O=C(c1cc(Cc2n[nH]c(=O)c3ccccc23)ccc1F)N1CCN(C(=O)C2CC2)CC1 [Olaparib] (partner 8 µM)
In short: (§1)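 Lung cancer cell lines were seeded in 1536-well plates and dosed by pin tool the next day, with either a single drug or a fixed anchor-drug dose combined with five library-drug doses (not always all listed) spaced in √10 steps. Five days later, one step fixed the cells and stained their nuclei (final 0.05% Triton X-100, 1% formaldehyde, 1 ug/ml Hoechst), and nuclei were counted on 4× images. Relative viability is the nuclei count in treated wells divided by the count in vehicle wells, and each value is the median of duplicate plates.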

[2] = compound: CN(C)CC1=CC(=CC=C1)N=C(C2=CC=CC=C2)C3=C(NC4=C3C=CC(=C4)C(=O)N(C)C)O + Nc1nc2[nH]cc(CCc3ccc(C(=O)N[C@@H](CCC(=O)O)C(=O)O)cc3)c2c(=O)[nH]1 [Pemetrexed] (partner 0.2 µM)
In short: as §1

[3] = compound: CN(C)CC1=CC(=CC=C1)N=C(C2=CC=CC=C2)C3=C(NC4=C3C=CC(=C4)C(=O)N(C)C)O + O=C(CCCCCCC(=O)Nc1ccccc1)NO [Vorinostat] (partner 1 µM)
In short: as §1

[4] = compound: CN(C)CC1=CC(=CC=C1)N=C(C2=CC=CC=C2)C3=C(NC4=C3C=CC(=C4)C(=O)N(C)C)O + C[C@]1(O)C[C@@H](c2nc(-c3ccc4ccc(-c5ccccc5)nc4c3)c3c(N)nccn32)C1 [Linsitinib] (partner 1 µM)
In short: as §1

Cell Line | relative viability ([1]; first compound 0.253 µM) | relative viability ([1]; first compound 0.8 µM) | relative viability ([1]; first compound 2.53 µM) | relative viability ([1]; first compound 8 µM) | relative viability ([2]; first compound 0.253 µM) | relative viability ([2]; first compound 0.8 µM) | relative viability ([2]; first compound 2.53 µM) | relative viability ([2]; first compound 8 µM) | relative viability ([3]; first compound 0.253 µM) | relative viability ([3]; first compound 0.8 µM) | relative viability ([3]; first compound 2.53 µM) | relative viability ([3]; first compound 8 µM) | relative viability ([4]; first compound 0.08 µM) | relative viability ([4]; first compound 0.253 µM) | relative viability ([4]; first compound 0.8 µM) | relative viability ([4]; first compound 2.53 µM) | relative viability ([4]; first compound 8 µM) | relative viability ([1]; first compound 0.08 µM) | relative viability ([2]; first compound 0.08 µM) | relative viability ([3]; first compound 0.08 µM)
NCI-H23 | 0.284 | 0.365 | 0.316 | 0.345 | 0.718 | 0.962 | 0.776 | 0.596 | 0.655 | 0.688 | 0.649 | 0.549 | 0.628 | 0.73 | 0.598 | 0.554 | 0.531 |  |  | 
NCI-H322M | 0.753 | 0.679 | 0.645 | 0.661 | 0.6 | 0.612 | 0.565 | 0.527 | 0.957 | 0.874 | 0.743 | 0.67 | 1.04 | 0.816 | 0.677 | 0.887 | 0.707 | 0.68 | 0.556 | 0.8
NCI-H358 | 0.661 | 0.546 | 0.527 | 0.528 | 0.173 | 0.165 | 0.164 | 0.175 | 0.629 | 0.585 | 0.582 | 0.482 | 0.779 | 0.715 | 0.673 | 0.621 | 0.464 | 0.598 | 0.176 | 0.73
NCI-H441 | 0.588 | 0.627 | 0.461 | 0.499 | 0.274 | 0.237 | 0.258 | 0.291 | 0.86 | 1.01 | 0.613 | 0.805 | 0.593 | 0.539 | 0.507 | 0.496 | 0.418 | 0.728 | 0.264 | 0.852
NCI-H460 | 0.447 | 0.433 |  | 0.428 | 0.0794 | 0.0612 | 0.0522 | 0.0565 | 0.702 | 0.716 | 0.704 | 0.728 | 0.841 | 0.758 | 0.893 | 0.471 | 0.54 | 0.46 | 0.0639 | 0.722
NCI-H520 | 0.352 | 0.284 | 0.298 | 0.286 | 0.654 | 0.737 | 0.563 | 0.435 | 0.644 | 0.831 | 0.621 | 0.536 | 0.896 | 0.878 | 0.919 | 0.834 | 0.97 | 0.378 | 0.688 | 0.715
NCI-H596 | 0.718 | 0.695 | 0.69 | 0.861 | 0.554 | 0.484 | 0.502 | 0.521 | 0.72 | 0.585 | 0.554 | 0.862 | 1.11 | 1.07 | 1.06 | 1 | 1.11 | 0.692 | 0.493 | 0.575
NCI-H647 | 0.579 | 0.523 | 0.575 | 0.305 | 0.181 | 0.147 | 0.172 | 0.181 | 0.561 | 0.423 | 0.421 | 0.649 | 1.29 | 1.11 | 0.858 | 1.12 | 0.795 | 0.386 | 0.179 | 0.477
NCI-H650 | 0.395 | 0.448 | 0.359 | 0.406 | 1.14 | 1.15 | 0.979 | 0.831 | 0.553 | 0.557 | 0.418 | 0.395 | 0.854 | 0.965 | 0.952 | 0.83 | 0.767 | 0.418 | 0.933 | 0.452
NCI-H661 | 0.697 | 0.74 | 0.649 | 0.706 | 0.901 | 0.935 | 0.928 | 0.907 | 0.756 | 0.769 | 0.751 | 0.748 | 0.623 | 0.549 | 0.529 | 0.574 | 0.455 | 0.739 | 0.867 | 0.901
NCI-H838 | 0.901 | 0.751 | 0.726 | 0.665 | 0.243 | 0.23 | 0.213 | 0.253 | 0.726 | 0.716 | 0.703 | 0.597 | 1.05 | 0.96 | 0.981 | 0.88 | 0.826 | 0.789 | 0.247 | 0.722
NCI-H1355 | 0.707 | 0.772 | 0.752 | 0.732 | 0.991 | 0.926 | 0.949 | 1.02 | 0.688 | 0.558 | 0.608 | 0.576 | 0.849 | 0.885 | 0.656 | 0.774 | 0.762 | 0.771 | 1.03 | 0.633
NCI-H1395 | 0.445 | 0.416 | 0.492 | 0.448 | 0.931 | 0.992 | 0.763 | 0.834 | 0.845 | 0.886 | 0.589 | 0.701 | 1.08 | 0.838 | 1.08 | 0.788 | 0.995 | 0.499 | 0.915 | 0.705
NCI-H1437 | 0.659 | 0.634 | 0.622 | 0.635 | 0.294 | 0.287 | 0.283 | 0.285 | 0.886 | 0.975 | 0.943 | 1.1 | 0.948 | 1.07 | 1.05 | 1.01 | 1.03 | 0.621 | 0.297 | 0.918
NCI-H1651 | 0.203 | 0.195 | 0.188 | 0.181 | 0.564 | 0.639 | 0.558 | 0.668 | 0.547 | 0.573 | 0.599 | 0.593 | 0.88 | 1.2 | 0.923 | 0.789 | 0.801 | 0.19 | 0.565 | 0.558
NCI-H1666 | 0.761 | 0.785 | 0.754 | 0.797 | 0.909 | 0.825 | 0.886 | 1.01 | 1.09 | 0.956 | 1.01 | 1.34 | 0.695 | 0.934 | 0.741 | 0.941 | 0.731 | 0.763 | 0.774 | 1.06
